Measurements published in patent US20250011829A1, “MEMBRANE FOR MICROBIOLOGICAL ANALYSIS” (Sartorius Stedim Biotech GmbH, priority 2021, published 2025).

Key:
[1] = Evaluation of wettability by filtration with activated carbon; format: physicochemical; settings: membrane filters impregnated with 0.1 wt % surfactant; white spots indicate inhomogeneous wetting
Protocol: The wetting ability of membrane filters obtained in Example 1, which were impregnated with 0.1 wt % of each of Tween 80, Triton X100, Brij 35, SDS, and SDBS, was evaluated after filtration with activated carbon. For this purpose, the pieces with a diameter of 4.7 cm were placed with the application side of the membrane pointing upwards on a frit of a filtration unit before cups are attached thereon. All valves of the filtration bar are closed. 0.2 g of activated carbon is suspended in 1 L of RO water and 100 ml of filtration volume is measured after vigorous stirring and filled into the filtration cups. The pump is then switched on and the valves are opened. After filtration, the black filter pieces are placed on a white sheet of paper and photographed. White spots indicate an inhomogeneous wetting pattern (FIG. 1).

[2] = ILC; for adsorbed amount of surfactant on the membrane: surfactant concentration 0.1 g/L
L. anisa WDCM 00106 = format: cell-based, Legionella anisa

Row | Substance | wetting pattern after filtration with activated carbon [1] | adsorbed amount of surfactant on the membrane [2] | colony forming units of L. anisa (L. anisa WDCM 00106) | adsorbed amount relative to SDBS ([2]; surfactant concentration 1.0 g/L)
1 | polyoxyethylene(x)-sorbitan monooleate (x=80) [Tween 80] | white wetting spots were visible |  |  | 
2 | sodium dodecyl benzyl sulfonate [SDBS] |  | 8.73 μg/cm^2 | sharp decrease in colony forming units | 
3 | 4-(1,1,3,3-tetramethylbutyl)-phenyl-polyethylene glycol [Triton X-100] |  | 51.5 μg/cm^2 |  | two times higher compared to SDBS
